# Data reported in ChEMBL document CHEMBL1146390, “Cytotoxic acylated Spermidine from a soft coral, Sinularia sp” (1997).
# Test system: P388
# Experiment: Cytotoxicity against mouse P388 cells
# Assay type: functional
# Conditions: read-out: ED50 (the source's name)
smiles,measurement,value
CCCCCCCCCC(C)/C=C/CC(=O)NCCCN(C)CCCCN(C)C (stereo unspecified),EC50,0.04 µg/mL
